Data from ChEMBL document CHEMBL3507680, “University of Dundee, Gates Library screen for HepG2 cell viability”.

Assay: Human HepG2 cell viability assay in 384 well format
Assay type: toxicity, cell-based
Design: dose 125 nL, time 70.5 hour; cytotoxicity at 70.5 h: concentration not given beside the values
Conditions: HepG2 cells, read-out: Inhibition

CCn1ccnc1CN1CCCC(CO)(Cc2cccc(OC)c2)C1 (configuration not stated)
cytotoxicity at 70.5 h: -14.1%

CC(C(=O)NCc1ccnc(Oc2ccc(F)cc2)c1)n1cncn1 (configuration not stated)
cytotoxicity at 70.5 h: -9.56%

Cc1nc(NC(=O)CN2CCc3c(nc(C(C)C)n3C)C2)sc1C
cytotoxicity at 70.5 h: -7.61%

CC(C)c1nc(CN(C)CC2CCN(CCO)CC2)no1
cytotoxicity at 70.5 h: -5.69%

CCOc1cccc(C(C)NC(=O)N2CCC(C(N)=O)CC2)c1 (configuration not stated)
cytotoxicity at 70.5 h: -8.18%

CC(C)NC(=O)COc1nc(C(C)C)no1
cytotoxicity at 70.5 h: 18%

O=C(c1ccsc1)N1CCc2ncc(Cn3cncn3)n2CC1
cytotoxicity at 70.5 h: -14.2%

C[C@@H]1CN(C(=O)[C@H]2CCCO2)C[C@]12CCN(c1ccsc1)C2=O
cytotoxicity at 70.5 h: -11.7%

CC(=O)N1CCCC2(C1)CN(C(=O)c1ccncc1)CCO2 (configuration not stated)
cytotoxicity at 70.5 h: -15.7%

CC(=O)N1CCCC2(C1)CN(C(=O)Cc1ccccc1)CCO2 (configuration not stated)
cytotoxicity at 70.5 h: -15.1%

C[C@@H]1CN(C(=O)c2cccc(F)c2)C[C@]12CCN(c1ccsc1)C2=O
cytotoxicity at 70.5 h: -16.2%

Cc1nc(NCC2CC2)nc2c1COCC21CCN(S(=O)(=O)C2CC2)C1 (configuration not stated)
cytotoxicity at 70.5 h: -15.4%

C[C@H]1CN(C(=O)c2cscn2)C[C@@]12CCN(c1ccsc1)C2=O
cytotoxicity at 70.5 h: -14.4%

COCCC1COC2(CCN(C(=O)c3cccn3C)CC2)C1 (configuration not stated)
cytotoxicity at 70.5 h: -14.7%

O=C(c1ccncn1)N1CCC[C@]2(C[C@H](OCC3CC3)CO2)C1
cytotoxicity at 70.5 h: -15.2%

CCO[C@@H]1CCN(C(=O)c2ccnnc2)[C@@H]1Cc1cnn(C)c1
cytotoxicity at 70.5 h: 3.33%

CO[C@@H]1CCN(C(=O)c2cnoc2C)[C@H]1Cc1ccccc1
cytotoxicity at 70.5 h: 2.59%

CN1CCN(c2ncnc3c2CCN(C(=O)c2cccn2C)CC3)CC1
cytotoxicity at 70.5 h: 6.05%

O=C(CC1CC1)N1CCC2(CCCN(c3ncccn3)C2)CC1
cytotoxicity at 70.5 h: -10.9%

COCC(=O)N1CCC2(CC1)CN(c1ncccn1)CCO2
cytotoxicity at 70.5 h: -10.1%

CN(C)CCN1CC[C@@H]2[C@@H]1CCN2C(=O)c1cccc(Cl)c1
cytotoxicity at 70.5 h: -13.9%

CN(Cc1cncnc1)[C@H]1CN(Cc2ccco2)[C@@H]2CCCO[C@@H]21
cytotoxicity at 70.5 h: -9.91%

NC(=O)N1CCC2(CC1)CN(c1ncccn1)CCO2
cytotoxicity at 70.5 h: -7.64%

CCO[C@@H]1CCN(C(=O)N(C)C)[C@@H]1Cc1cnn(C)c1
cytotoxicity at 70.5 h: -10.7%

COCCO[C@H]1CCN(C(=O)c2cnccn2)[C@H]1Cc1ccncc1
cytotoxicity at 70.5 h: -1.32%

COCC1CN(C(=O)Cc2cccs2)Cc2c1cnn2C (configuration not stated)
cytotoxicity at 70.5 h: 21.2%

O=C(c1cscn1)N1CC[C@H]2[C@@H]1CCC(=O)N2c1ccccc1
cytotoxicity at 70.5 h: 1.24%

CNC(=O)[C@@]12CCO[C@@H]1CCN(S(=O)(=O)c1cccc(F)c1)C2
cytotoxicity at 70.5 h: -10.2%

O=C(c1ccnnc1)N1CCc2ncnc(C3CCOC3)c2CC1 (configuration not stated)
cytotoxicity at 70.5 h: -9.59%

O=C(c1ccncc1)N1CCc2ncnc(C3CCOC3)c2CC1 (configuration not stated)
cytotoxicity at 70.5 h: -10.1%

O=C(CC1CCCC1)N1C[C@@H]2CN(Cc3ccoc3)CCO[C@@H]2C1
cytotoxicity at 70.5 h: -11.5%

COc1ncnc2c1CCN(CC1CCOC1)CC2 (configuration not stated)
cytotoxicity at 70.5 h: -13.6%

O=C(N1CCCC1)N1C[C@@H]2CN(Cc3ccoc3)CCO[C@@H]2C1
cytotoxicity at 70.5 h: -11.3%

Cc1cccc(CN2CC[C@H]3C[C@@H](C)O[C@@H]3C2)n1
cytotoxicity at 70.5 h: 10.9%

CCOCC1CN(C(=O)c2cscn2)Cc2cnn(CC3CC3)c21 (configuration not stated)
cytotoxicity at 70.5 h: 8.12%

CCOCC1CN(C(=O)Cc2ccccn2)Cc2cnn(CC)c21 (configuration not stated)
cytotoxicity at 70.5 h: 10.8%

Cc1n[nH]c(C)c1CCC(=O)NCC1COc2ccccc2C1 (configuration not stated)
cytotoxicity at 70.5 h: -2.08%

CCn1ccnc1CN(C)C1CCCN(CCCc2ccccc2)C1 (configuration not stated)
cytotoxicity at 70.5 h: 18.6%

CSc1ccc2cc(CN(C)CCCN(C)C)c(=O)[nH]c2c1
cytotoxicity at 70.5 h: -11.2%

COCCn1ccnc1C1CCCN(C(=O)CSc2nnc(C)o2)C1 (configuration not stated)
cytotoxicity at 70.5 h: -5.99%

CC1c2cccn2CCN1C(=O)CCCc1nc(-c2ccco2)no1 (configuration not stated)
cytotoxicity at 70.5 h: -7.42%

CCc1nccn1CCC(=O)N1CC[C@@H](c2sccc2C)[C@H](O)C1
cytotoxicity at 70.5 h: -12.3%

Cc1ccnc(N2CCN(C[C@]3(O)CCCN4CCCC[C@@H]43)CC2)c1
cytotoxicity at 70.5 h: 1.52%

CC(C)=CCCC(C)CN1CCC(n2cc(C(C)(C)O)nn2)CC1 (configuration not stated)
cytotoxicity at 70.5 h: -8.45%

Cc1ccc(-c2ccnc(NC(C)c3n[nH]c(=O)[nH]3)n2)c(C)n1 (configuration not stated)
cytotoxicity at 70.5 h: -12.8%

O=c1n(CC2COCCO2)nc(CC2CCNCC2)n1-c1ccccc1 (configuration not stated)
cytotoxicity at 70.5 h: -3.66%

Cc1cnc(C(=O)NCC2CCOc3ccccc3C2)cn1 (configuration not stated)
cytotoxicity at 70.5 h: 14.4%

Cn1ncc(N2CCOC(CCNC(=O)NC(C)(C)C)C2)cc1=O (configuration not stated)
cytotoxicity at 70.5 h: 19.2%

COc1cccc(OCCCc2cncc(C(N)=O)c2)c1
cytotoxicity at 70.5 h: -13.7%

COCCCN1CC2(CCN(Cc3ncc[nH]3)CC2)CC1=O
cytotoxicity at 70.5 h: -4.09%

COc1ccc2c(c1)OCC(Cc1ccnc(N)n1)C2 (configuration not stated)
cytotoxicity at 70.5 h: 8.07%

O[C@H]1[C@H](n2cc(-c3ccccn3)nn2)c2ccccc2C12CCNCC2
cytotoxicity at 70.5 h: -3.68%

COCCCN1C(=O)CC[C@H]2CN(c3cc(C(N)=O)ccn3)CC[C@H]21
cytotoxicity at 70.5 h: -7.97%

CC(=O)c1cccc(CN2CCCC23CCN(c2ccccn2)CC3)c1
cytotoxicity at 70.5 h: -4.38%

OC(c1ccccn1)C1CCN(Cc2cc3n(n2)CCCNC3)CC1 (configuration not stated)
cytotoxicity at 70.5 h: -21%

Cc1nccn1CCC1CCCCN1Cc1cnc(N(C)C)nc1 (configuration not stated)
cytotoxicity at 70.5 h: -3.91%

O=C(N1CC(c2cccnc2)C1)C1(c2ccc(F)cc2)CCOCC1
cytotoxicity at 70.5 h: 3.01%

C[C@@H]1CN(S(=O)(=O)c2ccc(F)cc2Cl)C[C@]1(C)O
cytotoxicity at 70.5 h: -0.172%

COc1ccc(OC)c2c(C)cc(N(C)CCCO)nc12
cytotoxicity at 70.5 h: 4.59%

CC(C)(C)c1oc(C(N)=O)cc1CN1CCCCC(N)C1 (configuration not stated)
cytotoxicity at 70.5 h: -7.89%

COc1ccc2c(c1)OCC(CNC(=O)c1cc(C(C)C)on1)C2 (configuration not stated)
cytotoxicity at 70.5 h: -20.5%

CCN(CC)C(=O)[C@@H]1C[C@@H](NC(=O)c2cccn2C2CC2)CN1C
cytotoxicity at 70.5 h: -7.5%

COc1cccc([C@@H](C)n2ccnc2-c2cc3n(n2)CCNC3)c1
cytotoxicity at 70.5 h: -10.2%

CC(C)c1nnc2n1CCN(Cc1ccc3c(c1)OCO3)CC2
cytotoxicity at 70.5 h: -11.5%

COc1cccc(N2CCN(Cc3cccc(CCN)c3)CC2=O)c1
cytotoxicity at 70.5 h: -6.65%

COCCn1c(=O)n(Cc2ccc(Cl)s2)c2cc(C(=O)O)ccc21
cytotoxicity at 70.5 h: -10.7%

c1cnn(CCC2CCCCN2Cc2cnc(C3CCCCC3)nc2)c1 (configuration not stated)
cytotoxicity at 70.5 h: -8.97%

O=C1N(CCCc2ccccc2)CCCC1(O)CNCC1CCCCC1 (configuration not stated)
cytotoxicity at 70.5 h: 6.76%

COc1cc(O)ccc1CN1CCN(C2CCc3ccccc3C2)CC1 (configuration not stated)
cytotoxicity at 70.5 h: -3.26%

CC(C)(N)c1cn(C2CCN(C(=O)CCC3CCCCC3)CC2)nn1
cytotoxicity at 70.5 h: -5.04%

CC(=O)N1C[C@H](NC(=O)c2csc(C(C)C)c2)[C@@H](C(C)C)C1
cytotoxicity at 70.5 h: 14.4%

C=Cc1cccc(CN(Cc2cnn(C)c2)C2CC2)c1
cytotoxicity at 70.5 h: -9.54%

CN1CCC(NCC2(O)CCCN(Cc3ccccc3F)C2=O)CC1 (configuration not stated)
cytotoxicity at 70.5 h: -4.92%

COCCN1C2(CCN(Cc3nccs3)C2)c2ccccc2S1(=O)=O (configuration not stated)
cytotoxicity at 70.5 h: -12.7%

CN(C)CC(=O)N1CCC2(CC1)CN(c1ncccn1)CCO2
cytotoxicity at 70.5 h: 5.39%

N#Cc1cccc(C(=O)N2CC[C@H]3[C@H]2CCN3CC2CCOCC2)c1
cytotoxicity at 70.5 h: 26.3%

O=C(c1cccc(F)c1)N1CC[C@H]2[C@H]1CCN2CC1CCOCC1
cytotoxicity at 70.5 h: -6.77%

CCCS(=O)(=O)N1C[C@H](N(C)Cc2ccco2)[C@@H]2OCCC[C@@H]21
cytotoxicity at 70.5 h: -6.06%

O=C1NC2(CCN(c3ncccn3)CC2)CC1c1cccnc1 (configuration not stated)
cytotoxicity at 70.5 h: -7.58%

c1ccc(OC2COC3(CCN(Cc4ccccn4)CC3)C2)cc1 (configuration not stated)
cytotoxicity at 70.5 h: 25.2%

Cn1ccnc1CN1CCC2(CC1)CCN(c1cncnc1)C2=O
cytotoxicity at 70.5 h: -3.96%

Cn1cc(C(=O)N2CC[C@@H]3[C@@H]2CCN3Cc2cccc(C#N)c2)cn1
cytotoxicity at 70.5 h: 0.809%

Cc1ccccc1N1CC2(CCN(Cc3nccn3C)C2)CC1=O (configuration not stated)
cytotoxicity at 70.5 h: -13.1%

COCCN1C(=O)CCC12CCCN(Cc1nccs1)CC2 (configuration not stated)
cytotoxicity at 70.5 h: -6.77%

Cc1cnc(C(=O)N2CC[C@H]3[C@@H]2CCC(=O)N3c2cccnc2)cn1
cytotoxicity at 70.5 h: -14.6%

O=C(C1CC(F)(F)C1)N1C[C@@H]2CN(Cc3ccsc3)CCO[C@@H]2C1
cytotoxicity at 70.5 h: -14.8%

CNC(=O)[C@@]12CCO[C@@H]1CCN(Cc1cccc(C)c1)C2
cytotoxicity at 70.5 h: -12.5%

O=C(C1CCOCC1)N1C[C@@H]2CN(Cc3ccsc3)CCO[C@@H]2C1
cytotoxicity at 70.5 h: -10.4%

Cc1ncnc2c1CCN(CC1CCOC1)CC2 (configuration not stated)
cytotoxicity at 70.5 h: -8.05%

O=C(Cc1cccs1)N1C[C@@H]2CN(Cc3ccoc3)CCO[C@@H]2C1
cytotoxicity at 70.5 h: -15.2%

Cc1nc(CN2CCC3(CC2)CCN(C(=O)c2cscn2)C3)cs1
cytotoxicity at 70.5 h: -13.7%

Cc1ccoc1C(=O)N1CC[C@H]2[C@@H]1CCC(=O)N2c1cccnc1
cytotoxicity at 70.5 h: -14.8%

CN(C)[C@@H]1CCN(C(=O)Cc2ccc(F)cc2)[C@H]1Cc1ccncc1
cytotoxicity at 70.5 h: -15.9%

O=C(c1cccnc1)N1CCn2cc(CN3CCCC3)nc2C1
cytotoxicity at 70.5 h: -6.71%

Cc1noc(C)c1CN1CCC[C@]2(C[C@@H](Oc3ccccn3)CO2)C1
cytotoxicity at 70.5 h: -0.591%

CN(Cc1ccco1)[C@@H]1CN(CC2CCOCC2)C[C@@H]2CCCO[C@@H]21
cytotoxicity at 70.5 h: 4.38%

CCOCC1CN(C(=O)Cc2ccccn2)Cc2c1cnn2C (configuration not stated)
cytotoxicity at 70.5 h: -7.19%

Cc1cnc(N2CC[C@@H]3O[C@@H](COCc4ccccn4)CC[C@@H]32)nc1
cytotoxicity at 70.5 h: -8.03%

c1ccc(O[C@@H]2CO[C@@]3(CCCN(CC4CCOCC4)C3)C2)nc1
cytotoxicity at 70.5 h: -8.71%

O=C1[C@@H]2CCN(Cc3ccccn3)C[C@@H]2OCCN1c1ccccc1
cytotoxicity at 70.5 h: -4.44%

c1ccc(O[C@H]2CO[C@@]3(CCCN(Cc4nccs4)C3)C2)nc1
cytotoxicity at 70.5 h: 42.1%

O=C1CC2(CCN(Cc3cccnc3)C2)CN1c1cncnc1 (configuration not stated)
cytotoxicity at 70.5 h: -2.69%

O=C(NCc1cccnc1)[C@@H]1CC[C@@H]2[C@@H](CCN2c2ncc(F)cn2)O1
cytotoxicity at 70.5 h: -3.65%

CN(Cc1cccnc1)C1CC2(CCN(Cc3cccnc3)CC2)C1
cytotoxicity at 70.5 h: -13.8%

Cc1noc(C)c1CN1CCN(Cc2cccnc2)c2ncccc2C1
cytotoxicity at 70.5 h: -6.13%

COCCN1CCN(Cc2ccncc2)c2ncccc2C1
cytotoxicity at 70.5 h: -11%

CN(Cc1ccco1)[C@@H]1CN(Cc2nccn2C)[C@@H]2CCCO[C@H]12
cytotoxicity at 70.5 h: -8.73%
